The target of assay [1] is T1, PDE4D (Homo sapiens, UniProt Q08499).
T1 construct: PDE4D: The catalytic domain of human PDE4B from S3 16-V692; His6 (N); thrombin cleavage site (N); made in house; host or cells: E. coli
Nature of the assay: PDE4 IC50 determination by Scintillation Proximity Assay, PDE4D. In kind it is biochemical. The protocol:
(§1) IC50s were determined by Scintillation Proximity Assay (SPA). The principle of the assay is based on the fact that cAMP, the PDE4 substrate, binds weakly to Yittrium Silicate SPA beads, whereas AMP, the product of PDE4 hydrolysis binds strongly. Thus, the extent of PDE4 hydrolysis of a sample of [^3H]cAMP can be measured because only the
(§2) [^3H]AMP produced by PDE4 hydrolysis will bind to the SPA beads and produce a scintillation signal.
(§3) PDE4 enzymes used for IC50 assays were:
(§4) Enzyme was stored in 50% glycerol at −20°.
(§5) In addition to the compound dilutions, each assay plate contained control wells with 1 μl of DMSO (to define 0% enzyme inhibition) or 1 μl of 200 μM roflumilast (to define 100% enzyme inhibition). […] Next, 10 μl of PDE4 enzyme in assay buffer was added and the plates were shaken for 30 s. at 1000 rpm to start the cAMP hydrolysis reaction. The concentrations of enzyme used were: PDE4B, 80 ng/ml; PDE4D, 4 ng/ml; PDE4B2, 2.5 μl of 50% glycerol stock/ml; PDE4D5 0.083 μl of 50% glycerol stock/ml. Assay plates were covered and incubated for 30 min. at 30°. […] The assay plates were covered with clear plastic film, centrifuged for 1 min. at 1000 RPM to settle the SPA beads, and counted using a Wallac TriLux scintillation counter. IC50's were calculated from the raw assay data by non-linear regression curve fitting using the Assay Explorer software package from MDL.
On the technique in general: Scintillation proximity formats need no separation of bound from free tracer.

Assay [2] deals with T2, PDE4B: The catalytic domain of human PDE4B from S152-S528 (Homo sapiens, UniProt Q07343).
T2 construct: His6 (N); thrombin cleavage site (N); made in house; host or cells: E. coli
T2 sequence (Q07343 with tags, fused parts or gaps): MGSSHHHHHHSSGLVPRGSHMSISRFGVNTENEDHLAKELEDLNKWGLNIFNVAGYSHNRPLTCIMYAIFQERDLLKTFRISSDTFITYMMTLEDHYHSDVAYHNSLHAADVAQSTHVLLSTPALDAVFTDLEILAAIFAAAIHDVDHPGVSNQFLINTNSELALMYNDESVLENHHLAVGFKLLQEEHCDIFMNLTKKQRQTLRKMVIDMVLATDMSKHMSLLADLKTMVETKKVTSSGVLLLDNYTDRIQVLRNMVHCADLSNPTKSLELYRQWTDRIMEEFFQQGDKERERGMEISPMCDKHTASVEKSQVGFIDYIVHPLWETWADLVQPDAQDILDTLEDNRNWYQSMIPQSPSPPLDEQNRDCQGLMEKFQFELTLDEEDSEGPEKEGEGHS
Nature of the assay: PDE4 IC50 determination by Scintillation Proximity Assay, PDE4B. In kind it is biochemical. Particulars: Table 1B, Formula I compounds; read-out: IC50 PDE4B. The procedure:
as §1, §2, §3, §4, §5

Where [3] appears, read: Table 1B, Formula I compounds, read-out: IC50 PDE4D.

Read-outs that look alike come from different tables or passages of the source. A value given as a limit tells only on which side of the number the result lay.

T1 sequence (Q08499 380-756): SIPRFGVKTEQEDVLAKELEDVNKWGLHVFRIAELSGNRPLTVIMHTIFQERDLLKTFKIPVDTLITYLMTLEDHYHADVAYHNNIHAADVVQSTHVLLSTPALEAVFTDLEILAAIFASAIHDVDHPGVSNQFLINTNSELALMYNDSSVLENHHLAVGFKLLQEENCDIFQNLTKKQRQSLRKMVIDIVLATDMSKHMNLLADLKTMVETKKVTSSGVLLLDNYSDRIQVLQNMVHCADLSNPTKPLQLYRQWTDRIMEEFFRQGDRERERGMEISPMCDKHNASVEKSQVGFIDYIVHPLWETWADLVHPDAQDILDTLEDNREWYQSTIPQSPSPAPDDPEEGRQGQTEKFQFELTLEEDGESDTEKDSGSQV

On to `CC1C2=C(CC(C)(C)CC2=O)Nc2sc(C(N)=O)c(N)c21` (centres unmarked) [Compound 1-4, 3-Amino-4,7,7-trimethyl-5-oxo-4,5,6,7,8,9-hexahydro-thieno[2,3-b]quinoline-2-carboxylic acid amide], for which the IC50 in assay [1] (setting [3]) and in assay [2] was > 10 µM in each case.

In the case of `COc1cc(C#N)c(Nc2sc(C(=O)c3ccc(Cl)cc3)c(N)c2C#N)cc1OC` [Compound 1-19, 4-Amino-5-(4-chloro-benzoyl)-2-(2-cyano-4,5-dimethoxy-phenylamino)-thiophene-3-carbonitrile], the IC50 in assay [1] (setting [3]) and in assay [2] was < 10 µM throughout.

For `Cc1cc(Cl)ccc1Nc1sc(C(=O)c2cc3cc(Cl)ccc3o2)c(N)c1C#N` [Compound 1-23, 4-Amino-5-(5-chloro-benzofuran-2-carbonyl)-2-(4-chloro-2-methyl-phenylamino)-thiophene-3-carbonitrile], the IC50 in assay [1] (setting [3]) and in assay [2] was > 10 µM in each case.

For `CCOC(=O)c1c(Nc2c(C)cccc2C)sc(C(=O)c2ccc(Br)cc2)c1N` [Compound 1-24, 4-Amino-5-(4-bromo-benzoyl)-2-(2,6-dimethyl-phenylamino)-thiophene-3-carboxylic acid ethyl ester], the IC50 in assay [1] (setting [3]) and in assay [2] was > 10 µM throughout.

Turning to `N#Cc1c(Nc2ccccc2)sc(C(=O)Nc2nccs2)c1N` [Compound 1-25, 3-Amino-4-cyano-5-phenylamino-thiophene-2-carboxylic acid thiazol-2-yl amide], the IC50 in assay [1] (setting [3]) and in assay [2] was < 10 µM throughout.

For the compound `Cc1cc(NC(=O)c2sc(Nc3ccccc3)c(C#N)c2N)no1` [Compound 1-26, 3-Amino-4-cyano-5-phenylamino-thiophene-2-carboxylic acid (5-methyl-isoxazol-3-yl)-amide], the IC50 in assay [1] (setting [3]) and in assay [2] was < 10 µM in each case.

As for `Cc1ccc(C(=O)c2sc(NCCN3CCCCC3)c(C#N)c2N)c(C)c1` [Compound 1-38, 4-Amino-5-(2,4-dimethyl-benzoyl)-2-(2-piperidin-1-yl-ethylamino)-thiophene-3-carbonitrile], the IC50 in assay [1] (setting [3]) and in assay [2] was > 10 µM each time.

In the case of `COc1ccc(OC)c(C(=O)c2sc(NCCN3CCCCC3)c(C#N)c2N)c1` [Compound 1-39, 4-Amino-5-(2,5-dimethoxy-benzoyl)-2-(2-piperidin-1-yl-ethylamino)-thiophene-3-carbonitrile], the IC50 in assay [1] (setting [3]) and in assay [2] was > 10 µM throughout.

`COc1ccc(C(=O)c2sc(NCCN3CCCCC3)c(C#N)c2N)c(OC)c1` [Compound 1-41, 4-Amino-5-(2,4-dimethoxy-benzoyl)-2-(2-piperidin-1-yl-ethylamino)-thiophene-3-carbonitrile]: the IC50 in assay [1] (setting [3]) and in assay [2] was > 10 µM in each case.

Regarding `COC(=O)C(CC(C)C)Nc1sc(C(=O)c2ccc(OC)cc2OC)c(N)c1C#N` (centres unmarked) [Compound 1-42, 2-[4-Amino-3-cyano-5-(2,4-dimethoxy-benzoyl)-thiophen-2-ylamino]-4-methyl-pentanoic acid methyl ester], the IC50 is > 10 µM in assay [1] (setting [3]) and < 10 µM in assay [2].

As to `COc1ccc(C(=O)c2sc(NC3CCOC3=O)c(C#N)c2N)c(OC)c1` (centres unmarked) [Compound 1-44, 4-Amino-5-(2,4-dimethoxy-benzoyl)-2-(2-oxo-tetrahydro-furan-3-ylamino)-thiophene-3-carbonitrile], the IC50 in assay [1] (setting [3]) is > 10 µM; in assay [2], < 10 µM.

Regarding `N#Cc1c(NCCN2CCCCC2)sc(C(=O)c2coc3ccccc23)c1N` [Compound 1-45, 4-Amino-5-(benzofuran-3-carbonyl)-2-(2-piperidin-1-yl-ethylamino)-thiophene-3-carbonitrile], the IC50 in assay [1] (setting [3]) and in assay [2] was > 10 µM throughout.

As to `N#Cc1c(NCCN2CCCCC2)sc(C(=O)c2ccccc2Cl)c1N` [Compound 1-46, 4-Amino-5-(2-chloro-benzoyl)-2-(2-piperidin-1-yl-ethylamino)-thiophene-3-carbonitrile], the IC50 in assay [1] (setting [3]) and in assay [2] was > 10 µM throughout.

On to `N#Cc1c(NCCN2CCCCC2)sc(C(=O)c2cccc(Cl)c2)c1N` [Compound 1-47, 4-Amino-5-(3-chloro-benzoyl)-2-(2-piperidin-1-yl-ethylamino)-thiophene-3-carbonitrile], for which the IC50 in assay [1] (setting [3]) and in assay [2] was > 10 µM in each case.

`N#Cc1c(NCCN2CCCCC2)sc(C(=O)c2csc3ccccc23)c1N` [Compound 1-48, 4-Amino-5-(benzo[b]thiophene-3-carbonyl)-2-(2-piperidin-1-yl-ethylamino)-thiophene-3-carbonitrile]: the IC50 in assay [1] (setting [3]) and in assay [2] was > 10 µM throughout.

Turning to `Cc1c(C(=O)c2sc(Nc3ccccc3F)c(C#N)c2N)cnn1-c1ccccc1` [Compound 1-49, 4-Amino-2-(2-fluoro-phenylamino)-5-(5-methyl-1-phenyl-1H-pyrazole-4-carbonyl)-thiophene-3-carbonitrile], the IC50 in assay [1] (setting [3]) and in assay [2] was < 10 µM in each case.

On to `Cc1c(C(=O)c2sc(NCCN3CCCCC3)c(C#N)c2N)cnn1-c1ccccc1` [Compound 1-51, 4-Amino-5-(5-methyl-1-phenyl-1H-pyrazole-4-carbonyl)-2-(2-piperidin-1-yl-ethylamino)-thiophene-3-carbonitrile], for which the IC50 in assay [1] (setting [3]) was > 10 µM; in assay [2] it was < 10 µM.

Take `COC(=O)C(CC(C)C)Nc1sc(C(=O)c2cnn(-c3ccccc3)c2C)c(N)c1C#N` (centres unmarked) [Compound 1-52, 2-[4-Amino-3-cyano-5-(5-methyl-1-phenyl-1H-pyrazole-4-carbonyl)-thiophen-2-ylamino]-4-methyl-pentanoic acid methyl ester]: the results for the IC50 in assay [1] (setting [3]) and in assay [2] were > 10 µM and < 10 µM, respectively.

Regarding `COC(=O)C(CCSC)Nc1sc(C(=O)c2cnn(-c3ccccc3)c2C)c(N)c1C#N` (centres unmarked) [Compound 1-53, 2-[4-Amino-3-cyano-5-(5-methyl-1-phenyl-1H-pyrazole-4-carbonyl)-thiophen-2-ylamino]-4-methylsulfanyl-butyric acid methyl ester], the IC50 in assay [1] (setting [3]) and in assay [2] was > 10 µM throughout.

Turning to `COc1ccc(CNc2sc(C(=O)c3cnn(-c4ccccc4)c3C)c(N)c2C#N)cc1OC` [Compound 1-54, 4-Amino-2-(3,4-dimethoxy-benzylamino)-5-(5-methyl-1-phenyl-1H-pyrazole-4-carbonyl)-thiophene-3-carbonitrile], the IC50 in assay [1] (setting [3]) and in assay [2] was < 10 µM each time.

As for `Cc1c(C(=O)c2sc(NC3CCOC3=O)c(C#N)c2N)cnn1-c1ccccc1` (centres unmarked) [Compound 1-56, 4-Amino-5-(5-methyl-1-phenyl-1H-pyrazole-4-carbonyl)-2-(2-oxo-tetrahydro-furan-3-ylamino)-thiophene-3-carbonitrile], the IC50 in assay [1] (setting [3]) is > 10 µM; in assay [2], < 10 µM.

On to `CCc1ccccc1Nc1sc(C(=O)c2cnn(-c3ccccc3)c2C)c(N)c1C#N` [Compound 1-58, 4-Amino-2-(2-ethyl-phenylamino)-5-(5-methyl-1-phenyl-1H-pyrazole-4-carbonyl)-thiophene-3-carbonitrile], for which the IC50 in assay [1] (setting [3]) and in assay [2] was < 10 µM each time.

On to `Cc1onc(-c2ccccc2)c1C(=O)c1sc(NCCN2CCCCC2)c(C#N)c1N` [Compound 1-59, 4-Amino-5-(5-methyl-3-phenyl-isoxazole-4-carbonyl)-2-(2-piperidin-1-yl-ethylamino)-thiophene-3-carbonitrile], for which the IC50 in assay [1] (setting [3]) and in assay [2] was > 10 µM each time.

Consider `COC(=O)C(CC(C)C)Nc1sc(C(=O)c2c(-c3ccccc3)noc2C)c(N)c1C#N` (centres unmarked) [Compound 1-60, 2-[4-Amino-3-cyano-5-(5-methyl-3-phenyl-isoxazole-4-carbonyl)-thiophen-2-ylamino]-4-methyl-pentanoic acid methyl ester], for which the IC50 in assay [1] (setting [3]) was > 10 µM; in assay [2], < 10 µM.

As for `N#Cc1c(NCCN2CCCCC2)sc(C(=O)c2ccccn2)c1N` [Compound 1-63, 4-Amino-2-(2-piperidin-1-yl-ethylamino)-5-(pyridine-2-carbonyl)-thiophene-3-carbonitrile], the IC50 in assay [1] (setting [3]) and in assay [2] was > 10 µM in each case.

Regarding `COC(=O)C(CC(C)C)Nc1sc(C(=O)c2ccccn2)c(N)c1C#N` (centres unmarked) [Compound 1-64, 2-[4-Amino-3-cyano-5-(pyridine-2-carbonyl)-thiophen-2-ylamino]-4-methyl-pentanoic acid methyl ester], the results for the IC50 in assay [1] (setting [3]) and in assay [2] were > 10 µM and < 10 µM, respectively.

For the compound `COc1cccc(C(=O)c2sc(Nc3cccc(C#N)c3)nc2N)c1` [Compound 2-64, 3-[4-Amino-5-(3-methoxy-benzoyl)-thiazol-2-ylamino]-benzonitrile], in assay [1] (second part of Table 2B (2-23 to 2-103), column 5, column is PDE4D in first part, read-out: IC 50 vs. indicated assay h TNFα), the IC50 was > 10 µM.

The values are drawn from US7585859B2, “PDE4B inhibitors and uses therefor” (Plexxikon, Inc., priority 2004, dated 2009).
